Reference: patent US4481191A, “Method for controlling blood pressure” (The Regents of the University of California, priority 1983, dated 1984)

Legend:
rats = details: administered intravenously (i.v.); Wei et al., Life Sciences; cited from earlier work
mouse vas deferens = details: cited from earlier work
guinea pig ileum = details: cited from earlier work
[1] = system: visceral afferent receptors; test: Sensitivity to morphine sulfate-induced bradycardia after subcutaneous pretreatment (FIG. 1); type: in vivo, rat; details: rats; for effect of prior administration on sensitivity to morphine sulfate bradycardia (ED50 of morphine sulfate for greater than 10% fall in heart rate): subcutaneously 30 minutes before testing with morphine sulfate
Text: Turning to FIG. 1, the ordinate thereof represents the ED50 of morphine sulfate for producing a greater than 10% fall in heart rate in rats, and serves as an index of the sensitivity of the animal to the drug. Morphine sulfate functions as a "challenge" drug for producing bradycardia, and is a traditional standard for comparison. Lower ED50 values mean that the visceral afferent receptors are more sensitive. The abscissa of FIG. 1 represents doses of dynorphin(1-13) and Leu-enkephalin, respectively, in units of micromoles per kg body weight administered subcutaneously 30 minutes before testing with morphine sulfate.
The experiments for which the data is illustrated by FIGS. 1 and 2 were conducted on male Sprague-Dawley rats weighing 250-350 g. Animals were kept under a 12-hour light-dark cycle with food and water available ad libitum. Each rat was used only once. Procedures of infusion of chemicals into the brain and for measurement of heart rate were as reported by Wei, et al., Life Science, supra, and Wei, J. Pharmacol. Exp. Ther. 21b: 12-18 (1981).
The median effective dose of drugs (ED50) for producing bradycardia was determined in animals anesthetized with 2.5% urethane solution in saline, administered 1.25 g/kg i.p. Drugs, dissolved in distilled water, were injected intravenously into a cannulated femoral vein in a volume of 0.05 ml/100 gm body weight delivered over a period of less than 3 seconds. The pH of the solutions ranged from 5.8 to 6.8 units. The blood pressure was obtained from the left cannulated carotid artery. A Narcobiosystems type 7302 cardiotachometer couple was used to integrate heart rate from the individual oscillations in blood pressure due to the heart beat, and heart rate was recorded on a polygraph recorder. The baseline heart rate (HR1) was defined as the lowest rate observed in the two minutes before drug administration. The magnitude of the change in heart rate was calculated as [(HR2 -HR1)/HR1 ]×100%, with the second heart rate (HR2) measured as the lowest rate observed in the three minutes after drug injection. […]

mice = details: studies with mice; cited from earlier work
[2] = synthetic product; cited from earlier work

Substance	median effective dose (ED50) for lowering of heart rate and blood pressure (rats) [µmol/kg]	effect of prior administration on sensitivity to morphine sulfate bradycardia (ED50 of morphine sulfate for greater than 10% fall in heart rate) [1]	other results
methionine-enkephalin	1.3	–	–
Dynorphin	–	–	agonist properties (mouse vas deferens): potent agonist properties; agonist properties (guinea pig ileum): potent agonist properties
Leu-enkephalin	1.5	enhances sensitivity	–
dynorphin(1-13)	–	enhances sensitivity	analgesia (mice): relatively weak in producing analgesia; activity in enhancing sensitivity relative to Leu-enkephalin ([1]; subcutaneously 30 minutes before morphine sulfate): about 5 times; potency in bioassays versus the naturally occurring peptide [2]: as potent in bioassays as the naturally occuring peptide
beta-endorphin: endogenous opioid peptide	0.07	–	–
